pIC50: −log10 of the molar value.
Legend:
Type in all cases: cell-based
MOLT-4 cells = test: MOLT-4 cell viability, CTG assay; details: Homo sapiens, MOLT-4, 48 h
Summary of the method: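 Viability read as total ATP luminescence (CTG) after 48 h compound treatment, 11 points at 5-fold spacing in triplicate, cells in RPMI 1640/10% FBS. IC50 is the concentration halving signal relative to control, four-parameter fit, averaged over at least 2 experiments.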

Bcl-xL = target: T1, Bcl-xL (Homo sapiens, UniProt Q07817); test: HCT116 Bcl-xL degradation, capillary-based immunoassay (WES); details: HCT116, 24 h, 9-point serial dilution
T1 construct: Measured levels of Bcl-xL protein of HCT116 cells treated with the tested compounds; host or cells: HCT116
Summary of the method: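 Bcl-xL protein level by capillary WES immunoassay in HCT116 lysates, as % of untreated after cofilin normalization. Compound exposure was 24 h at 10 and 100 nM and/or a 9-point series, in quadruplicate. Four-parameter fitting gave the DC50.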

[1] = tested on: EBC-1 lung cancer cell line; test: EBC-1 cell proliferation, CellTiter-Glo assay; details: Homo sapiens, 120 h; Ebc-1 cell viability, CTG assay, 5 days of treatment; read-out: CTG 5 day Ebc1 GI50
Summary of the method: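 CellTiter-Glo read-out after 5-day compound treatment, normalised to untreated cells, with GI50 derived by four-parameter logistic regression. Ten concentrations spanning 0.508 nM–10 μM were added to 1000 EBC-1 cells per well the day after seeding. Assays required at least one cell doubling versus Day 0.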

HiBiT-tagged BCL-xL = target: T2, HiBiT-tagged BCL-xL (Homo sapiens, UniProt Q07817); test: NCI-H1650 BCL-xL protein levels, Nano-Glo HiBiT Lytic Detection; details: NCI-H1650 expressing HiBiT-tagged BCL-xL, overnight incubation, read-out: Bcl-xl HIBIT NCIH1650 DC50
T2 construct: expressed in transfected cells; host or cells: NCI-H1650 (ATCC No. CRL-5883), engineered HiBiT cell line
Summary of the method: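 HiBiT luminescence after cell lysis with LgBiT/furimazine reagent reported BCL-xL levels, expressed relative to untreated wells and fitted with a four-parameter logistic equation. Engineered NCI-H1650 cells were exposed overnight at 37° C to compound at final 0.508 nM-10 μM (10 points, triplicate plates).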

T1 sequence (Q07817 whole entry): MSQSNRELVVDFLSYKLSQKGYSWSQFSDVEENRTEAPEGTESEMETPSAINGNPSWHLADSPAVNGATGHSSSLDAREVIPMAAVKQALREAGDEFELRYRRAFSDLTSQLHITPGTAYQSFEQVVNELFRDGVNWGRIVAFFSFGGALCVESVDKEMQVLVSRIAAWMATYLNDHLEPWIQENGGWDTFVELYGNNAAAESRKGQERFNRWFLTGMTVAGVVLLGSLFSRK
T2 sequence (Q07817 whole entry): as above

| Compound | pIC50 (MOLT-4 cells) | DC50 (Bcl-xL) [nM] | GI50 [1] [nM] | DC50 (HiBiT-tagged BCL-xL) [nM] |
| --- | --- | --- | --- | --- |
| Cc1ncsc1-c1ccc([C@H](C)NC(=O)[C@@H]2C[C@@H](O)CN2C(=O)[C@@H](NC(=O)COCCCCCCCCCCCN(C)CCOC23CC4(C)CC(C)(CC(Cn5ncc(-c6ccc(N7CCCc8c7nnc(Nc7nc9ccccc9s7)c8C)nc6C(=O)O)c5C)(C4)C2)C3)C(C)(C)C)cc1 [Example 110, 6-[3-(1,3-benzothiazol-2-ylamino)-4-methyl-6,7-dihydro-5H-pyrido[2,3-c]pyridazin-8-yl]-3-[1-[[3-[2-[11-[2-[[(1S)-1-[(2S,4R)-4-hydroxy-2-[[(1S)-1-[4-(4-methylthiazol-5-yl)phenyl]ethyl]carbamoyl]pyrrolidine-1-carbonyl]-2,2-dimethyl-propyl]amino]-2-oxo-ethoxy]undecyl-methyl-amino]ethoxy]-5,7-dimethyl-1-adamantyl]methyl]-5-methyl-pyrazol-4-yl]pyridine-2-carboxylic acid] | 7.62 | 11.4 | 379 | 2 |
| Cc1cc(N(CCCCN(C)C(=O)CCCCCCCCCCC(=O)N[C@H](C(=O)N2C[C@H](O)C[C@H]2C(=O)N[C@@H](C)c2ccc(-c3scnc3C)cc2)C(C)(C)C)c2ccc(-c3cnn(CC45CC6(C)CC(C)(C4)CC(OCCN(C)C)(C6)C5)c3C)c(C(=O)O)n2)nnc1Nc1nc2ccccc2s1 [Example 112, 6-[[6-(1,3-benzothiazol-2-ylamino)-5-methyl-pyridazin-3-yl]-[4-[[12-[[(1S)-1-[(2S,4R)-4-hydroxy-2-[[(1S)-1-[4-(4-methylthiazol-5-yl)phenyl]ethyl]carbamoyl]pyrrolidine-1-carbonyl]-2,2-dimethyl-propyl]amino]-12-oxo-dodecanoyl]-methyl-amino]butyl]amino]-3-[1-[[3-[2-(dimethylamino)ethoxy]-5,7-dimethyl-1-adamantyl]methyl]-5-methyl-pyrazol-4-yl]pyridine-2-carboxylic acid] | 7.80 | 0.495 | 437 | 0.5 |
| Cc1ncsc1-c1ccc([C@H](C)NC(=O)[C@@H]2C[C@@H](O)CN2C(=O)[C@@H](NC(=O)COCCOCCOCCN(C)CCOC23CC4(C)CC(C)(CC(Cn5ncc(-c6ccc(N7CCCc8c7nnc(Nc7nc9ccccc9s7)c8C)nc6C(=O)O)c5C)(C4)C2)C3)C(C)(C)C)cc1 [Example 113, 6-[3-(1,3-benzothiazol-2-ylamino)-4-methyl-6,7-dihydro-5H-pyrido[2,3-c]pyridazin-8-yl]-3-[1-[[3-[2-[2-[2-[2-[2-[[(1S)-1-[(2S,4R)-4-hydroxy-2-[[(1S)-1-[4-(4-methylthiazol-5-yl)phenyl]ethyl]carbamoyl]pyrrolidine-1-carbonyl]-2,2-dimethyl-propyl]amino]-2-oxo-ethoxy]ethoxy]ethoxy]ethyl-methyl-amino]ethoxy]-5,7-dimethyl-1-adamantyl]methyl]-5-methyl-pyrazol-4-yl]pyridine-2-carboxylic acid] | 7.69 | > 316 | 49 | > 1670 |
| Cc1cc(N(CCCCN(C)C(=O)CCCCCCCCCC(=O)N[C@H](C(=O)N2C[C@H](O)C[C@H]2C(=O)N[C@@H](C)c2ccc(-c3scnc3C)cc2)C(C)(C)C)c2ccc(-c3cnn(CC45CC6(C)CC(C)(C4)CC(OCCN(C)C)(C6)C5)c3C)c(C(=O)O)n2)nnc1Nc1nc2ccccc2s1 [Example 114, 6-[[6-(1,3-benzothiazol-2-ylamino)-5-methyl-pyridazin-3-yl]-[4-[[11-[[(1S)-1-[(2S,4R)-4-hydroxy-2-[[(1S)-1-[4-(4-methylthiazol-5-yl)phenyl]ethyl]carbamoyl]pyrrolidine-1-carbonyl]-2,2-dimethyl-propyl]amino]-11-oxo-undecanoyl]-methyl-amino]butyl]amino]-3-[1-[[3-[2-(dimethylamino)ethoxy]-5,7-dimethyl-1-adamantyl]methyl]-5-methyl-pyrazol-4-yl]pyridine-2-carboxylic acid] | 7.61 | 2.67 | 1720 | 1 |
| Cc1cc(N(CCCCN(C)C(=O)CCCCCCCCCCCCC(=O)N[C@H](C(=O)N2C[C@H](O)C[C@H]2C(=O)N[C@@H](C)c2ccc(-c3scnc3C)cc2)C(C)(C)C)c2ccc(-c3cnn(CC45CC6(C)CC(C)(C4)CC(OCCN(C)C)(C6)C5)c3C)c(C(=O)O)n2)nnc1Nc1nc2ccccc2s1 [Example 116, 6-[[6-(1,3-benzothiazol-2-ylamino)-5-methyl-pyridazin-3-yl]-[4-[[14-[[(1S)-1-[(2S,4R)-4-hydroxy-2-[[(1S)-1-[4-(4-methylthiazol-5-yl)phenyl]ethyl]carbamoyl]pyrrolidine-1-carbonyl]-2,2-dimethyl-propyl]amino]-14-oxo-tetradecanoyl]-methyl-amino]butyl]amino]-3-[1-[[3-[2-(dimethylamino)ethoxy]-5,7-dimethyl-1-adamantyl]methyl]-5-methyl-pyrazol-4-yl]pyridine-2-carboxylic acid] | 7.79 | 3.6 | 45 | 1 |

Now those with a higher pIC50 (MOLT-4 cells), led by results:

| pIC50 (MOLT-4 cells) | DC50 (Bcl-xL) [nM] | GI50 [1] [nM] | DC50 (HiBiT-tagged BCL-xL) [nM] | Compound |
| --- | --- | --- | --- | --- |
| 8.08 | 1.17 | 89 | > 1670 | Cc1ncsc1-c1ccc(CNC(=O)[C@@H]2C[C@@H](O)CN2C(=O)[C@@H](NC(=O)C2(F)CC2)C(C)(C)SCCCCCCCCCCCN(C)CCOC23CC4(C)CC(C)(CC(Cn5ncc(-c6ccc(N7CCCc8c7nnc(Nc7nc9ccccc9s7)c8C)nc6C(=O)O)c5C)(C4)C2)C3)cc1 [Example 117, 6-[3-(1,3-benzothiazol-2-ylamino)-4-methyl-6,7-dihydro-5H-pyrido[2,3-c]pyridazin-8-yl]-3-[1-[[3-[2-[11-[(2R)-2-[(1-fluorocyclopropanecarbonyl)amino]-3-[(2S,4R)-4-hydroxy-2-[[4-(4-methylthiazol-5-yl)phenyl]methylcarbamoyl]pyrrolidin-1-yl]-1,1-dimethyl-3-oxo-propyl]sulfanylundecyl-methyl-amino]ethoxy]-5,7-dimethyl-1-adamantyl]methyl]-5-methyl-pyrazol-4-yl]pyridine-2-carboxylic acid] |
| 8.11 | 0.155 | 98 | 1 | Cc1ncsc1-c1ccc([C@H](C)NC(=O)[C@@H]2C[C@@H](O)CN2C(=O)[C@@H](NC(=O)COCCCCCCCCCN(C)CCOC23CC4(C)CC(C)(CC(Cn5ncc(-c6ccc(N7CCCc8c7nnc(Nc7nc9ccccc9s7)c8C)nc6C(=O)O)c5C)(C4)C2)C3)C(C)(C)C)cc1 [Example 109, 6-[3-(1,3-benzothiazol-2-ylamino)-4-methyl-6,7-dihydro-5H-pyrido[2,3-c]pyridazin-8-yl]-3-[1-[[3-[2-[9-[2-[[(1S)-1-[(2S,4R)-4-hydroxy-2-[[(1S)-1-[4-(4-methylthiazol-5-yl)phenyl]ethyl]carbamoyl]pyrrolidine-1-carbonyl]-2,2-dimethyl-propyl]amino]-2-oxo-ethoxy]nonyl-methyl-amino]ethoxy]-5,7-dimethyl-1-adamantyl]methyl]-5-methyl-pyrazol-4-yl]pyridine-2-carboxylic acid] |
| 8.11 | > 316 | 84 | > 1670 | Cc1ncsc1-c1ccc(CNC(=O)[C@@H]2C[C@@H](O)CN2C(=O)[C@@H](NC(=O)C2(F)CC2)C(C)(C)SCCCCCCCCCCCCCN(C)CCOC23CC4(C)CC(C)(CC(Cn5ncc(-c6ccc(N7CCCc8c7nnc(Nc7nc9ccccc9s7)c8C)nc6C(=O)O)c5C)(C4)C2)C3)cc1 [Example 118, 6-[3-(1,3-benzothiazol-2-ylamino)-4-methyl-6,7-dihydro-5H-pyrido[2,3-c]pyridazin-8-yl]-3-[1-[[3-[2-[13-[(2R)-2-[(1-fluorocyclopropanecarbonyl)amino]-3-[(2S,4R)-4-hydroxy-2-[[4-(4-methylthiazol-5-yl)phenyl]methylcarbamoyl]pyrrolidin-1-yl]-1,1-dimethyl-3-oxo-propyl]sulfanyltridecyl-methyl-amino]ethoxy]-5,7-dimethyl-1-adamantyl]methyl]-5-methyl-pyrazol-4-yl]pyridine-2-carboxylic acid] |
| 8.58 | 0.4 | 41 | 0.5 | Cc1ncsc1-c1ccc([C@H](C)NC(=O)[C@@H]2C[C@@H](O)CN2C(=O)[C@@H](NC(=O)COCCCCCCCCCCCCCN(C)CCOC23CC4(C)CC(C)(CC(Cn5ncc(-c6ccc(N7CCCc8c7nnc(Nc7nc9ccccc9s7)c8C)nc6C(=O)O)c5C)(C4)C2)C3)C(C)(C)C)cc1 [Example 111, 6-[3-(1,3-benzothiazol-2-ylamino)-4-methyl-6,7-dihydro-5H-pyrido[2,3-c]pyridazin-8-yl]-3-[1-[[3-[2-[13-[2-[[(1S)-1-[(2S,4R)-4-hydroxy-2-[[(1S)-1-[4-(4-methylthiazol-5-yl)phenyl]ethyl]carbamoyl]pyrrolidine-1-carbonyl]-2,2-dimethyl-propyl]amino]-2-oxo-ethoxy]tridecyl-methyl-amino]ethoxy]-5,7-dimethyl-1-adamantyl]methyl]-5-methyl-pyrazol-4-yl]pyridine-2-carboxylic acid] |
